Measured values taken from US4758560A, “Phenyl-(3-hexamethyleneiminopropyl)-ketone” (priority 1985, dated 1988).
Where two headings read alike, the source gives them in different places.

Assays:
[1] = test system: femoral artery; experiment: Comparative assays: femoral vasodilating action (MVD) in nembutal-anesthetized dogs, I.D. route; assay type: in vivo; parameters: key to MVD (minimum dose inducing a femoral vasodilating action): (g): no vasodilating action per I.D. route; conditions: for minimal effective dose: Canis lupus familiaris, intraduodenal, read-out: MVD (minimum dose inducing in nembutal-anesthetized dogs a femoral vasodilating action); for therapeutical index (MVD/LD50 ratio): MVD I.D. dogs / LD50 I.V. mice
From the text: (e) minimum dose inducing in nembutalanesthetized dogs a femoral
vasodilating action (tested products being administered per I.D. route).

[2] = in vivo; conditions: mouse, iv, LD-50 I.V. mice
[3] = test system: mice; experiment: Toxicity in mice, intraperitoneal route; assay type: in vivo
[4] = test system: nembutal-anesthetized dogs; experiment: Cardiovascular study in nembutal-anesthetized dogs, intraduodenal administration (then I.V.); assay type: in vivo; conditions: for minimal effective dose: Canis lupus familiaris, intraduodenal
Method: (§1) The study of the cardiovascular properties has been performed on nembutal-anesthetized dogs, CRL 41 339 being administered intra-duodenallyin solution in physiological saline (bidistilled water containing 9 g/l of NaCl) at pH 7.5 (the maximum concentration of CRL 41 339 used being of 32.4 mg/ml).
(§2) Three dogs (average weight: 14.3 kg), anesthetized with nembutal, receive CRL 41 339 by intraduodenal administration at successive doses of 0.1 mg/kg, 0.5 mg/kg, 1 mg/kg, 2.5 mg/kg, 5 mg/kg and 10 mg/kg, then two of these dogs receive a supplemental dose of CRL 41 339 (10 mg/kg) by intravenous administration.
(§3) The arterial blood pressure, the heart rate, the blood flow through the femoral artery, the blood flow through the vertebral artery and the rectal and cutaneous temperatures are measured.

[5] = test system: isoprenaline; experiment: Effects of isoprenaline after CRL 41 339 in anesthetized dogs; assay type: in vivo
Method: as §1, §2, §3
with 1 μg/kg of isoprenaline, the diastolic blood pressure changes from 117 mm Hg (i.e. about 1.5×10^4 Pa) to 37 mm Hg (i.e. about 4.9×10^3 Pa) after CRL 41 339, instead of changing from 144 mm Hg (i.e. about 1.9×10^4 Pa) to 36 mm Hg (i.e. about 4.8×10^3 Pa) in the control animals (i.e. anesthetized dogs receiving only isoprenaline), and the heart rate changes from 175 beats/minute to 238 beats/minute after CRL 41 339, while in the control animals said heart rate increases from 188 beats/minute to 253 beats/minute.

[6] = test system: noradrenaline; experiment: Noradrenaline-induced hypertension after CRL 41 339 in anesthetized dogs; assay type: in vivo; conditions: for systolic blood pressure with noradrenaline: 2 μg/kg noradrenaline after 19.1 mg/kg I.D. accumulated; for systolic blood pressure before noradrenaline: after 19.1 mg/kg I.D. accumulated
Method: as §1, §2, §3
It is also observed that the noradrenaline-induced hypertension is reduced by CRL 41 339 (at an accumulated dose of 19.1 mg/kg I.D.):
with 2 μg/kg of noradrenaline the systolic blood pressure increases from 160 mm Hg (i.e. about 2.1×10^4 Pa) to 253 mm Hg (i.e. about 3.3×10^4 Pa) after administration of CRL 41 339 at an accumulated dose of 19.1 mg/kg I.D., while in the control animals, (anesthetized dogs receiving only noradrenaline) the blood systolic pressure increases from 181 mm Hg (i.e. about 2.4×10^4 Pa) to 301 mm Hg (i.e. about 4×10^4 Pa).

[7] = test system: adult human beings; experiment: Clinical assays in adult human beings; assay type: in vivo; conditions: arteritis manifestations and ulcers of arterial or venous origin in lower limbs
From the text: In clinical trials, good results were obtained on adult human beings after administration of CRL 41 339 as vasodilating agent, in particular in the treatment of (i) arteritis manifestations in lower limbs, and (ii) ulcers of arterial or venous origin in lower limbs.

[8] = test system: rabbit ear microcirculation; experiment: Action on rabbit ear microcirculation; assay type: in vivo; conditions: gastric route, awakened Half Top rabbits
Method: […] in an aqueous solution at pH 6.5 (prepared extemporaneously) is administered by gastric route to Half Top rabbit batches (3 males, average weight: […]; and 3 females, average weight 3.3 kg) under a volume of 2 ml/kg. The very same animals used as control animals against themselves receive distilled water per gastric route, under the very same volume. The following parameters are measured: the terminal arteriole diameter, the terminal veinule diameter, the arteriolar pulsatility, the ear cutaneous temperature, the heart rate and the rectal temperature.

[9] = test system: femoral artery; experiment: Action on isolated dog vessels: femoral artery; conditions: n=5
Method: (§4) Annuli of femoral arteriae and external saphenous veins of nembutal-anesthetized dogs are cut off and placed into aerated (O2 : 96%; CO2 : 4%, by volume) Krebs-Henseleit, kept at 37° C. and subjected to a 0.5 g stretching. These vessels are constricted either with noradrenaline 10^-5 M in the presence of propanolol 10^-6 M, or with KCl 50 mM in the presence of phentolamine 3×10^-6 M. CRL 41 339 is tested at accumulated doses.

[10] = test system: external saphenous vein; experiment: Action on isolated dog vessels: external saphenous vein; conditions: n=4
Method: as §4

[11] = test system: perfused hind quarters of rats; experiment: Action on perfused hind quarters of rats; assay type: in vivo
[12] = test system: femoral artery; experiment: Comparison of salts: femoral artery flow in nembutal-anesthetized dogs, I.A. route; assay type: in vivo; conditions: Ex 1 at pH 6, Ex 2 and Ex 3 at pH 4, dose 0: 64, 64, 79, average of 5 assays
Method: Three dogs anesthetized with nembutal and having an average weight of 12.9 kg are used as control animals vis-a-vis themselves, and are administered per I.A. route in the femoral artery with phenyl-(3-hexamethyleneiminopropyl)-ketone hydrochloride, fumarate and citrate (Ex 1, Code No.: CRL 41 339; Ex 2, Code No.: CRL 41 339A; and respectively Ex 3, code No.: CRL 41 339B), at equimolar doses.

[13] = Solubility in water; assay type: physicochemical; conditions: white powder, very soluble in water
[14] = test system: mice
[15] = test system: Salmonella typhimurium
[16] = 10 mg/kg I.V., supplemental to I.D. doses
[17] = after accumulated dose of 19.1 mg/kg I.D.
[18] = KCl 50 mM with phentolamine 3×10^-6 M
[19] = noradrenaline 10^-5 M with propanolol 10^-6 M
[20] = nembutal-anesthetized, noradrenaline-constricted

COc1cc(OC)c(C(=O)CCCN2CCCC2)c(OC)c1.Cl [A-1, (2,4,6-trimethoxyphenyl)-(3-pyrrolidinopropyl)-ketone hydrochloride]
minimal effective dose ([1]; dogs, I.D. route): 6 mg/kg | therapeutical index (MVD/LD50 ratio) [1]: 0.100 | LD50 [2]: 60 mg/kg

COc1cc(OC)c(C(=O)CCCN2CCCCCC2)c(OC)c1.Cl [A-2, (2,4,6-trimethoxyphenyl)-(3-hexamethyleneiminopropyl)-ketone hydrochloride]
minimal effective dose ([1]; dogs, I.D. route): 5 mg/kg | therapeutical index (MVD/LD50 ratio) [1]: 0.053 | LD50 [2]: 96 mg/kg

COc1cc(OC)c(C(=O)CCCN2CCCCC2)c(OC)c1 [A-3]
MVD (minimum dose inducing a femoral vasodilating action) ([1]; dogs, I.D. route): (g)

Cl.O=C(CCCN1CCCCCC1)c1ccccc1 [Ex 1, phenyl-(3-hexamethyleneiminopropyl)-ketone hydrochloride]
LD-30 (lethal dose for 30% of the treated animals) [3]: about 128 mg/kg | LD-100 (minimum lethal dose for all the treated animals) [3]: ≤ 256 mg/kg | LD-O (maximum non-lethal dose) [3]: higher than 64 mg/kg | blood pressure effect of supplemental I.V. dose [4, 16]: hypotension | heart rate effect of supplemental I.V. dose [4, 16]: bradycardia | minimal effective dose ([4]; I.D., accumulated dose, read-out: accumulated dose as from which femoral artery flow is highly increased): 4.1 mg/kg | minimal effective dose ([4]; I.D., single successive dose, read-out: dose as from which femoral artery flow is highly increased): 2.5 mg/kg | blood arterial pressure ([4]; I.D. route): does not modify | heart beat ([4]; I.D. route): does not modify | respiration rate ([4]; I.D. route): reduces the respiration rate | femoral artery flow ([4]; I.D., as from the dose of 2.5 mg/kg (accumulated 4.1 mg/kg)): highly increases | diastolic blood pressure with isoprenaline ([5]; 1 μg/kg isoprenaline after CRL 41 339 (19.1 mg/kg I.D. accumulated), controls 36): 37 mm Hg | heart rate with isoprenaline ([5]; 1 μg/kg isoprenaline after CRL 41 339 (19.1 mg/kg I.D. accumulated), controls 253): 238 beats/minute | diastolic blood pressure with isoprenaline ([5]; 1 μg/kg isoprenaline after CRL 41 339 (19.1 mg/kg I.D. accumulated), controls about 4.8×10^3 Pa): about 4.9×10^3 Pa | diastolic blood pressure before isoprenaline ([5]; after CRL 41 339 (19.1 mg/kg I.D. accumulated), controls 144): 117 mm Hg | heart rate before isoprenaline ([5]; after CRL 41 339 (19.1 mg/kg I.D. accumulated), controls 188): 175 beats/minute | diastolic blood pressure before isoprenaline ([5]; after CRL 41 339 (19.1 mg/kg I.D. accumulated), controls about 1.9×10^4 Pa): about 1.5×10^4 Pa | effects of isoprenaline as regards the diastolic blood pressure [5, 17]: not modified | effects of isoprenaline as regards the heart rate [5, 17]: slightly reduced | systolic blood pressure with noradrenaline ([6]; controls 301): 253 mm Hg | systolic blood pressure with noradrenaline ([6]; controls about 4×10^4 Pa): about 3.3×10^4 Pa | noradrenaline-induced hypertension ([6]; accumulated dose of 19.1 mg/kg I.D.): reduced | systolic blood pressure before noradrenaline ([6]; controls 181): 160 mm Hg | systolic blood pressure before noradrenaline ([6]; controls about 2.4×10^4 Pa): about 2.1×10^4 Pa | vasodilating activity compared with reference compounds ([1]; I.D. route, vs LL 1656 and CRL 41 080): more active as a vasodilating substance per introduodenal route | therapeutical index (MVD/LD50 ratio) [1]: 0.032 | superiority as regards peripheral vasodilating activity ([1]; vs A-1, A-2, A-3): superiority | clinical trials, as vasodilating agent [7]: good results | arteriolar pulsatility [8]: stronghly increases | arteriolar pulsatility/heart rate ratio [8]: stronghly increases | duration of terminal arteriole dilation [8]: 0.5 h | ear cutaneous temperature [8]: important and lasting increase | heart rate [8]: without modifying the heart rate | terminal arteriole diameter [8]: moderately dilates | veinular diameter [8]: no action | IC50 ([9]; Canis lupus familiaris, noradrenaline 10^-5 M with propanolol 10^-6 M, read-out: CI-50 (molar concentration which reduces of 50% the contraction), artery): 5.9 µM | action on femoral artery constriction induced by KCl [9, 18]: no action | action on artery constricted by noradrenaline [9, 19]: slakening | IC50 ([10]; Canis lupus familiaris, noradrenaline 10^-5 M with propanolol 10^-6 M, read-out: CI-50 (molar concentration which reduces of 50% the contraction), vein): 130 µM | action on external saphenous vein constriction induced by KCl [10, 18]: no action | action on vein constricted by noradrenaline [10, 19]: slakening | anti-noradrenaline activity ([11]; believed to be involved in the vasodilating activity): important anti-noradrenaline activity | duration of vasodilating effect [11, 20]: increases with the dose | vasodilating effect on hind quarters of rats [11, 20]: important vasodilating effect | Femoral flow ([12]; dose 10^-5 M): 166 mL/min | Femoral flow ([12]; dose 10^-6 M): 117 mL/min | Femoral flow ([12]; dose 10^-7 M): 83 mL/min | solubility [13]: 100 mg/mL | superiority as regards toxicity ([14]; mouse, in vivo): superiority | toxicity compared with reference compounds ([14]; vs LL 1656 and CRL 41 080): less toxic | mutagenic activity [15]: devoid of mutagenic activity | LD50 [2]: 128 mg/kg

O=C(CCCN1CCCCCC1)c1ccccc1.O=C(O)/C=C/C(=O)O [Ex 2, phenyl(3-hexamethyleneiminopropyl)-ketone fumarate]
Femoral flow ([12]; dose 10^-5 M): 168 mL/min | Femoral flow ([12]; dose 10^-6 M): 117 mL/min | Femoral flow ([12]; dose 10^-7 M): 76 mL/min

O=C(CCCN1CCCCCC1)c1ccccc1.O=C(O)CC(O)(CC(=O)O)C(=O)O [Ex 3, phenyl(3-hexamethyleneiminopropyl)-ketone citrate]
Femoral flow ([12]; dose 10^-5 M): 197 mL/min | Femoral flow ([12]; dose 10^-6 M): 127 mL/min | Femoral flow ([12]; dose 10^-7 M): 90 mL/min
